Experimental data taken from US20160052918A1, “SMALL COMPOUNDS TARGETING TACC3” (JAPANESE FOUNDATION FOR CANCER RESEARCH, priority 2012, published 2016).
Converted amounts (≈) assume the structure as drawn.

Key:
Format in all cases: cell-based
[1] = tested on: SKOV-3 cells; assay: Abnormal spindle morphology by immunostaining, SKOV-3; settings: 24 hours
Protocol: (§1) SPL-A was added at each concentration to the SKOV-3 or OVCAR-3 cells. Twenty four hours after incubation, the cells were fixed and immunostained using antibodies against cell division-related substances such as α-tubulin described below. The percentage of spindle morphology was determined from at least 50 cells. The data was indicated by a mean of three independent experiments and SD.
(§2) The immunostaining was carried out by the following method: the cells were fixed in 3.7% PFA, methanol, or 10% TCA on a chamber slide, then permeabilized with 0.2% Triton-X100 in PBS, and incubated with primary antibodies. A monoclonal antibody (DM1A) against α-tubulin and monoclonal antibodies (DQ19 and GTU-88) against γ-tubulin were obtained from Sigma-Aldrich Corp. An anti-centrin 2 antibody (sc-27793) was purchased from Santa Cruz Biotechnology, Inc. Fluorescent labelled goat anti-mouse IgG (Cappel) and Cy3 labelled goat anti-rabbit IgG (Millipore) antibodies were used as secondary antibodies. DNA was detected using 4,6-diamidino-2-phenylindole (DAPI). Images were obtained using Leica DM6000B microscope equipped with ×100/1.40-0.70 PlanApo objective lens and Z-projections.
(§3) FIGS. 5A and B show the results of analyzing spindle morphology. The percentage of spindle morphology was indicated by the percentage (%) of normal, multipolar, disorganized, or monopolar spindles to the number of mitotic cells. […]

[2] = tested on: cancer cell lines SKOV-3 and OVCAR-3; assay: G2/M-phase cells by PI flow cytometry, cancer cell lines; settings: two cancer cell lines, 24 hours, FIG. 10
Protocol: (§4) (A) Two cancer cell lines SKOV-3 and OVCAR-3 and three normal cell lines hTERT-RPE, MCF 10A, and 184B5 were treated with SPL-A at concentrations shown in the abscissa of FIG. 10A for 24 hours, then stained with propidium iodide (PI), and analyzed by flow cytometry.
(§5) The same two cancer cell lines and three normal cell lines as in (A) were treated with each of paclitaxel, vincristine, and vinblastine acting on microtubule formation, S-trityl-L-cysteine (STLC) and SB743921 acting on proteins involved in mitosis, an Aurora kinase inhibitor VX680, and a polo-like kinase (PLK) inhibitor BI2536 at concentrations shown in the abscissa of FIG. 10B for 24 hours, then stained with propidium iodide (PI), and analyzed by flow cytometry.

[3] = tested on: mouse lymphoma cell line; assay: Cell death of lymphoma (survival rate, WST-1); settings: 72 h, IC50=50% survival rate, three days
Protocol: The synthesized compounds were analyzed for their activity against cell death induction using a mouse lymphoma cell line (see Non Patent Literature 12), which was a cell line derived from thymic lymphoma developed in p53KO mouse.
The number of the lymphoma cells was adjusted to 1.2×10^5 cells/ml. The cells were inoculated at a concentration of 50 μl/well to a 96-well culture dish. A medium containing each RT compound as the novel compound of the present invention at twice the concentration of 50 μl was further added thereto (final concentration: 0.021 to 13.3 μg/ml). Three days after cultivation, the survival rate was calculated using WST-1 reagent (manufactured by F. Hoffmann-La Roche, Ltd.).

[4] = tested on: OVCAR-3 cells; assay: Abnormal spindle morphology by immunostaining, OVCAR-3; settings: 24 hours
Protocol: as §1, §2, §3

[5] = tested on: normal cell lines hTERT-RPE, MCF 10A, and 184B5; assay: G2/M-phase cells by PI flow cytometry, normal cell lines; settings: 3 normal cell lines, 24 hours, FIG. 10
Protocol: as §4, §5

[6] = tested on: SKOV-3 cells expressing EGFP-α-tubulin; assay: Mitotic arrest of synchronized EGFP-α-tubulin-expressing SKOV-3 cells, time-lapse single-cell analysis
Protocol: The EGFP-α-tubulin-expressing cells used in the assay will be described. In order to observe mitosis under a fluorescence microscope, cells expressing EGFP-α-tubulin (fusion protein of a fluorescent protein, EGFP, and α-tubulin) were prepared. A system observable under a fluorescence microscope without cell fixation was prepared.
Ovary cancer cells SKOV-3 were cultured in an RPMI1640 medium supplemented with 5% fetal bovine serum. Stable cells expressing EGFP-α-tubulin were transduced by lentiviral transduction using pLenti4/V5-DEST vectors (Registered Trade Mark) (manufactured by Invitrogen Corp.) and selected by the FACS sorting of infected cells using Zeocin (Registered Trade Mark) and subsequent FACSAria (Registered Trade Mark) (Becton, Dickinson and Company).
The compounds NPD2448, NPD2568, NPD3574, NPD4089, and C7—O-propylated NPD3574 were each added at varying concentrations to the culture medium of SKOV-3 cells expressing EGFP-α-tubulin and analyzed for their effect on cell division.
The SKOV-3 cells expressing EGFP-α-tubulin were synchronized by thymidine block to analyze the effect on cell division of each compound. As shown in the upper part of FIG. 2, each compound was added to the culture medium after the 1st thymidine block. After synchronization by the second thymidine block, images were taken every 2 minutes for 3 days using Leica AF6000 and ×20/0.5 Plan Fluotar objective lens in a phenol red-free RPMI1640 medium supplemented with 5% fetal bovine serum. These time-lapse images were analyzed using ImageJ 1.42a software, and the time of mitotic arrest was determined by visual judgment. The duration of mitosis was manually determined from the image sequences of at least 50 cells.
The mitotic arrest (EC50=50% arrest rate) was tested by the microscopic analysis of individual single cells.
EGFP-α-tubulin-expressing SKOV-3 cells synchronized by double thymidine block in the same way as in Example 2 were treated with each synthesized compound and subjected to time-lapse photography for 3 days. At least 50 cells were observed. The time of arrest of each cell was calculated, and EC50 was determined therefrom.
EGFP-α-tubulin-expressing SKOV-3 cells supplemented with each of SPL-A and SPL-B at varying concentrations were synchronized by double thymidine block in the same way as in Example 2. Analysis based on single cells was conducted by time-lapse photography. The duration of mitosis was measured from the image sequences of at least 50 cells.

[7] = tested on: OVCAR-3 cells expressing EGFP-α-tubulin; assay: Cell fate determination by time-lapse photography, OVCAR-3; settings: 13.3 μg/ml SPL-A or 2.7 μg/ml SPL-B
Protocol: (§6) The cells used were SKOV-3 cells and OVCAR-3 cells expressing EGFP-α-tubulin.
(§7) The OVCAR-3 cells expressing EGFP-α-tubulin were obtained using the same procedure as that for the SKOV-3 cells expressing EGFP-α-tubulin. The cells supplemented with each of SPL-A and SPL-B were synchronized by double thymidine block in the same way as in Example 2. Images were obtained by time-lapse photography and analyzed. The cells of each line were treated with 13.3 μg/ml SPL-A or 2.7 μg/ml SPL-B. The cell fate was manually determined from the image sequence of at least 50 cells with the time point of nuclear envelope breakdown defined as 0.

[8] = tested on: SKOV-3 cells expressing EGFP-α-tubulin; assay: Cell fate determination by time-lapse photography, SKOV-3; settings: 13.3 μg/ml SPL-A or 2.7 μg/ml SPL-B
Protocol: as §6, §7

SMILES: O=c1cc(-c2cc3ccccc3oc2=O)c2ccc(O)c(CN3CCC(CCO)CC3)c2o1 [RT-011]
- percentage of cells with multipolar spindles ([1]; SKOV-3, 1.25 μg/ml): 53.3%
- percentage of cells with disorganized spindles ([1]; SKOV-3, 5 μg/ml): 56.7%
- percentage of G2/M-phase cells / cell division [2]: increased the percentage of G2/M-phase cells in a concentration-dependent manner
- IC50 [3]: 2.15 µg/mL (≈ 4.8 µM)
- percentage of cells with multipolar spindles ([4]; OVCAR-3, 1.25 μg/ml): 44.0%
- percentage of cells with disorganized spindles ([4]; OVCAR-3, 2.5 μg/ml): 57.3%
- inhibitory effect on cell division [5]: no inhibitory effect on cell division
- concentration at which mitotic arrest was induced ([6]; Example 5, FIG. 3, final concentrations): 2.667 µg/mL
- EC50 ([6]; Homo sapiens, SK-OV-3, 72 h, mitotic arrest, EC50=50% arrest rate, double thymidine block, time-lapse 3 days, at least 50 cells, read-out: SKOV3 EC50): 0.79 µg/mL (≈ 1.77 µM)
- inhibitory effects on cell growth ([6]; summary of Table 2 (SKOV-3 mitotic arrest and lymphoma cell death)): remarkable inhibitory effects on cell growth
- cell fate of most cells [7]: mitotic death
- cell fate of most cells [8]: mitotic slippage
